This is an account of results in patent US20240050428A1 (Cullgen (Shanghai), Inc., priority 2020, published 2024).

Assay [1] concerns MOLM-13 cells. Nature of the assay: Cell viability assay (CellTiter-Glo) in MOLM-13 cells, alone or with gilteritinib. The class given is cell-based. Conditions: Homo sapiens, MOLM-13 cells, three days, CellTiter-Glo.
For assay [2], the system named is MV4;11 cells. Nature of the assay: Cell viability assay (CellTiter-Glo) in MV4;11 cells, alone or with gilteritinib. The class given is cell-based. To be noted: Homo sapiens, MV4;11 cells, three days, CellTiter-Glo, read-out: MV4. On the technique in general: In ATP-based viability assays light output follows the ATP content of the culture.
[3] abbreviates: MOLM-13, 72 h, compound alone (without gilteritinib), read-out: MOLM-13 IC50.
The mark [4] stands for this setting: MOLM-13, 72 h, with gilteritinib 20 nM, read-out: MOLM-13 IC50 gilteritinib.
Setting [5] is: MV4-11, 72 h, compound alone (without gilteritinib), 11 IC50.
Setting [6] is: MV4-11, 72 h, with gilteritinib 10 nM, 11 IC50 gilteritinib.
[7] abbreviates: 72 h, compound alone (without gilteritinib), read-out: MOLM-13 IC50.
The mark [8] stands for this setting: 72 h, with gilteritinib 20 nM, read-out: MOLM-13 IC50 gilteritinib.
[9] abbreviates: 72 h, compound alone (without gilteritinib), 11 IC50.
Where [10] appears, read: 72 h, with gilteritinib 10 nM, 11 IC50 gilteritinib.

Structures are written as SMILES. Read-outs that look alike come from different tables or passages of the source. A value given as a limit tells only on which side of the number the result lay.

Turning to `CN1CCC(Nc2ccc(-c3cn([C@H]4C[C@H](CNc5ccc6c(c5)C(=O)N(C5CCC(=O)NC5=O)C6=O)C4)nc3C3CC3)nc2)CC1` (stereo partly drawn) [GS-303, 5-(((trans-3-(3-Cyclopropyl-4-(5-((1-methylpiperidin-4-yl)amino)pyridin-2-yl)-1H-pyrazol-1-yl)cyclobutyl)methyl)amino)-2-(2,6-dioxopiperidin-3-yl)isoindoline-1,3-dione], the IC50 in assay [1] (setting [3]), in assay [1] (setting [4]), in assay [2] (setting [5]) and in assay [2] (setting [6]) was more than 1000 nM throughout.
`O=C1CCC(N2C(=O)c3ccc(NC[C@H]4C[C@H](n5cc(-c6ncccc6NC6CCNCC6)c(C6CC6)n5)C4)cc3C2=O)C(=O)N1` (stereo partly drawn) [GS-304, 5-(((trans-3-(3-Cyclopropyl-4-(3-(piperidin-4-ylamino)pyridin-2-yl)-1H-pyrazol-1-yl)cyclobutyl)methyl)amino)-2-(2,6-dioxopiperidin-3-yl)isoindoline-1,3-dione]: the IC50 in assay [1] (setting [3]), in assay [1] (setting [4]), in assay [2] (setting [5]) and in assay [2] (setting [6]) was more than 1000 nM each time.
For `Cc1nc(-c2cn([C@H]3C[C@H](CNc4ccc5c(c4)C(=O)N(C4CCC(=O)NC4=O)C5=O)C3)nc2C2CC2)ccc1F` (stereo partly drawn) [GS-305, 5-(((trans-3-(3-Cyclopropyl-4-(5-fluoro-6-methylpyridin-2-yl)-1H-pyrazol-1-yl)cyclobutyl)methyl)amino)-2-(2,6-dioxopiperidin-3-yl)isoindoline-1,3-dione], the IC50 in assay [1] (setting [3]) was 10 to 100 nM; in assay [1] (setting [4]), less than 10 nM; in assay [2] (setting [5]), 10 to 100 nM; in assay [2] (setting [6]), less than 10 nM.
`CNc1ccnc(-c2cn([C@H]3C[C@H](CNc4ccc5c(c4)C(=O)N(C4CCC(=O)NC4=O)C5=O)C3)nc2C2CC2)c1` (stereo partly drawn) [GS-306, 5-(((trans-3-(3-Cyclopropyl-4-(4-(methylamino)pyridin-2-yl)-1H-pyrazol-1-yl)cyclobutyl)methyl)amino)-2-(2,6-dioxopiperidin-3-yl)isoindoline-1,3-dione]: the IC50 in assay [1] (setting [3]), in assay [1] (setting [4]), in assay [2] (setting [5]) and in assay [2] (setting [6]) was more than 1000 nM each time.
As to `O=C1CCC(N2C(=O)c3ccc(NC[C@H]4C[C@H](n5cc(-c6cc7[nH]cnc7cn6)c(C6CC6)n5)C4)cc3C2=O)C(=O)N1` (stereo partly drawn) [GS-307, 5-(((trans-3-(3-Cyclopropyl-4-(1H-imidazo[4,5-c]pyridin-6-yl)-1H-pyrazol-1-yl)cyclobutyl)methyl)amino)-2-(2,6-dioxopiperidin-3-yl)isoindoline-1,3-dione], the IC50 in assay [1] (setting [3]) fell in the range of 100 to 1000 nM; in assay [1] (setting [4]), 10 to 100 nM; in assay [2] (setting [5]), 100 to 1000 nM; in assay [2] (setting [6]) it was 10 to 100 nM.
`O=C1CCC(N2C(=O)c3ccc(NC[C@H]4C[C@H](n5cc(-c6ccc7c(n6)CCCC7)c(C6CC6)n5)C4)cc3C2=O)C(=O)N1` (stereo partly drawn) [GS-308, 5-(((trans-3-(3-Cyclopropyl-4-(5,6,7,8-tetrahydroquinolin-2-yl)-1H-pyrazol-1-yl)cyclobutyl)methyl)amino)-2-(2,6-dioxopiperidin-3-yl)isoindoline-1,3-dione]: the IC50 was 10 to 100 nM in assay [1] (setting [3]), less than 10 nM in assay [1] (setting [4]), 10 to 100 nM in assay [2] (setting [5]) and less than 10 nM in assay [2] (setting [6]).
For the molecule `O=C1CCC(N2C(=O)c3ccc(NC[C@H]4C[C@H](n5cc(-c6nccc7nccnc67)c(C6CC6)n5)C4)cc3C2=O)C(=O)N1` (stereo partly drawn) [GS-309, 5-(((trans-3-(3-Cyclopropyl-4-(pyrido[3,4-b]pyrazin-5-yl)-1H-pyrazol-1-yl)cyclobutyl)methyl)amino)-2-(2,6-dioxopiperidin-3-yl)isoindoline-1,3-dione], the IC50 in assay [1] (setting [3]), in assay [1] (setting [4]), in assay [2] (setting [5]) and in assay [2] (setting [6]) was less than 10 nM each time.
Turning to `O=C1CCC(N2C(=O)c3ccc(NC[C@H]4C[C@H](n5cc(-c6nccc7cn[nH]c67)c(C6CC6)n5)C4)cc3C2=O)C(=O)N1` (stereo partly drawn) [GS-310, 5-(((trans-3-(3-Cyclopropyl-4-(1H-pyrazolo[3,4-c]pyridin-7-yl)-1H-pyrazol-1-yl)cyclobutyl)methyl)amino)-2-(2,6-dioxopiperidin-3-yl)isoindoline-1,3-dione], the IC50 lay within 100 to 1000 nM in assay [1] (setting [3]), 10 to 100 nM in assay [1] (setting [4]), 10 to 100 nM in assay [2] (setting [5]) and 10 to 100 nM in assay [2] (setting [6]).
Consider `O=C1CCC(N2C(=O)c3ccc(NCCC[C@H]4C[C@H](n5cc(-c6ncccc6Cl)cn5)C4)cc3C2=O)C(=O)N1` (stereo partly drawn) [GS-311, 5-((3-(trans-3-(4-(3-Chloropyridin-2-yl)-1H-pyrazol-1-yl)cyclobutyl)propyl)amino)-2-(2,6-dioxopiperidin-3-yl)isoindoline-1,3-dione], for which the IC50 is more than 1000 nM in assay [1] (setting [3]), 10 to 100 nM in assay [1] (setting [4]), 10 to 100 nM in assay [2] (setting [5]) and less than 10 nM in assay [2] (setting [6]).
Take `O=C(CCn1cc(-c2cnc3ccccc3n2)c(C2CC2)n1)NCc1ccc2c(c1)C(=O)N(C1CCC(=O)NC1=O)C2=O` (stereo not shown) [GS-312, 3-(3-Cyclopropyl-4-(quinoxalin-2-yl)-1H-pyrazol-1-yl)-N-((2-(2,6-dioxopiperidin-3-yl)-1,3-dioxoisoindolin-5-yl)methyl)propanamide]: the IC50 in assay [1] (setting [7]), in assay [1] (setting [8]), in assay [2] (setting [9]) and in assay [2] (setting [10]) was more than 1000 nM in each case.
As for `O=C1CCC(N2C(=O)c3ccc(CNCCCn4cc(-c5cnc6ccccc6n5)c(C5CC5)n4)cc3C2=O)C(=O)N1` (stereo not shown) [GS-313, 5-(((3-(3-Cyclopropyl-4-(quinoxalin-2-yl)-1H-pyrazol-1-yl)propyl)amino)methyl)-2-(2,6-dioxopiperidin-3-yl)isoindoline-1,3-dione], the IC50 in assay [1] (setting [3]), in assay [1] (setting [4]), in assay [2] (setting [5]) and in assay [2] (setting [6]) was more than 1000 nM throughout.
Regarding `CN1CCN(c2ccc3nc(-c4cn([C@H]5C[C@H](CNc6ccc7c(c6)C(=O)N(C6CCC(=O)NC6=O)C7=O)C5)nc4C4CC4)cnc3c2)CC1` (stereo partly drawn) [GS-314, 5-(((trans-3-(3-Cyclopropyl-4-(6-(4-methylpiperazin-1-yl)quinoxalin-2-yl)-1H-pyrazol-1-yl)cyclobutyl)methyl)amino)-2-(2,6-dioxopiperidin-3-yl)isoindoline-1,3-dione], the IC50 in assay [1] (setting [3]) was 10 to 100 nM; in assay [1] (setting [4]) it was less than 10 nM; in assay [2] (setting [5]), 10 to 100 nM; in assay [2] (setting [6]), less than 10 nM.
On to `O=C1CCC(N2C(=O)c3ccc(NCCCCCCn4cc(-c5cnc6cccc(Br)c6n5)cn4)cc3C2=O)C(=O)N1` (stereo not shown) [GS-315, 5-((6-(4-(8-Bromoquinoxalin-2-yl)-1H-pyrazol-1-yl)hexyl)amino)-2-(2,6-dioxopiperidin-3-yl)isoindoline-1,3-dione], for which the IC50 was 100 to 1000 nM in assay [1] (setting [3]), 10 to 100 nM in assay [1] (setting [4]), 10 to 100 nM in assay [2] (setting [5]) and less than 10 nM in assay [2] (setting [6]).
In the case of `O=C(CN1CCC(n2cc(-c3cnc4ccccc4n3)cn2)CC1)NCCCNc1ccc2c(c1)C(=O)N(C1CCC(=O)NC1=O)C2=O` (stereo not shown) [GS-316, N-(3-((2-(2,6-Dioxopiperidin-3-yl)-1,3-dioxoisoindolin-5-yl)amino)propyl)-2-(4-(4-(quinoxalin-2-yl)-1H-pyrazol-1-yl)piperidin-1-yl)acetamide], the IC50 is more than 1000 nM in assay [1] (setting [3]), 100 to 1000 nM in assay [1] (setting [4]), more than 1000 nM in assay [2] (setting [5]) and more than 1000 nM in assay [2] (setting [6]).
As to `O=C(CN1CCC(n2cc(-c3ccc4ccccc4n3)cn2)CC1)NCCCNc1ccc2c(c1)C(=O)N(C1CCC(=O)NC1=O)C2=O` (stereo not shown) [GS-317, N-(3-((2-(2,6-Dioxopiperidin-3-yl)-1,3-dioxoisoindolin-5-yl)amino)propyl)-2-(4-(4-(quinolin-2-yl)-1H-pyrazol-1-yl)piperidin-1-yl)acetamide], the IC50 in assay [1] (setting [3]) was more than 1000 nM; in assay [1] (setting [4]) it was 100 to 1000 nM; in assay [2] (setting [5]), more than 1000 nM; in assay [2] (setting [6]), more than 1000 nM.
Turning to `O=C1CCC(N2C(=O)c3ccc(NCCCC(=O)N4CCN(c5ccccn5)CC4)cc3C2=O)C(=O)N1` (stereo not shown) [GS-318, 2-(2,6-Dioxopiperidin-3-yl)-5-((4-oxo-4-(4-(pyridin-2-yl)piperazin-1-yl)butyl)amino)isoindoline-1,3-dione], the IC50 was more than 1000 nM in assay [1] (setting [7]), 10 to 100 nM in assay [1] (setting [8]), 100 to 1000 nM in assay [2] (setting [9]) and 10 to 100 nM in assay [2] (setting [10]).
Consider `O=C1CCC(N2C(=O)c3ccc(NCCCC(=O)N4CCN(c5ccccc5)CC4)cc3C2=O)C(=O)N1` (stereo not shown) [GS-319, 2-(2,6-Dioxopiperidin-3-yl)-5-((4-oxo-4-(4-phenylpiperazin-1-yl)butyl)amino)isoindoline-1,3-dione], for which the IC50 in assay [1] (setting [7]) is more than 1000 nM; in assay [1] (setting [8]), 10 to 100 nM; in assay [2] (setting [9]), more than 1000 nM; in assay [2] (setting [10]), more than 1000 nM.
With `CN(c1ccccc1)C1CCN(CC(=O)NCCNc2ccc3c(c2)C(=O)N(C2CCC(=O)NC2=O)C3=O)CC1` (stereo not shown) [GS-320], the IC50 was more than 1000 nM in assay [1] (setting [7]), 100 to 1000 nM in assay [1] (setting [8]), more than 1000 nM in assay [2] (setting [9]) and more than 1000 nM in assay [2] (setting [10]).
As to `CN(c1ccccn1)C1CCN(CC(=O)NCCNc2ccc3c(c2)C(=O)N(C2CCC(=O)NC2=O)C3=O)CC1` (stereo not shown) [GS-321, N-(2-((2-(2,6-Dioxopiperidin-3-yl)-1,3-dioxoisoindolin-5-yl)amino)ethyl)-2-(4-(methyl(pyridin-2-yl)amino)piperidin-1-yl)acetamide], the IC50 is more than 1000 nM in assay [1] (setting [3]), 100 to 1000 nM in assay [1] (setting [4]), more than 1000 nM in assay [2] (setting [5]) and more than 1000 nM in assay [2] (setting [6]).
